Data from patent US6635653B2 (priority 2001, dated 2003).
Values joined by “and” are separate entries in the source; they are usually repeats but may differ in a detail not shown here. Equal values may be shown once. Read-outs that look alike come from different tables or passages of the source.

Tests used:
Mu opioid receptor = Mu opioid receptor (Homo sapiens, UniProt P35372); test: Affinity at the μ receptor ([35S]GTPγS binding assay, membranes); conditions: read-out: Mu Receptor Affinity calc Ki
Protocol: Affinity at the μ receptor for compounds was obtained according to the following assay:
Mu opioid receptor membrane solution was prepared by sequentially adding final concentrations of 0.075 μg/μl of the desired membrane protein, 10 μg/ml saponin, 3 μM GDP and 0.20 nM [^35S]GTPγS to binding buffer (100 mM NaCl, 10 mM MgCl2, 20 mM HEPES, pH 7.4) on ice. The prepared membrane solution (190 μl/well) was transferred to 96-shallow well polypropylene plates containing 10 μl of 20×concentrated stock solutions of agonist prepared in DMSO. Plates were incubated for 30 min at room temperature with shaking. Reactions were terminated by rapid filtration onto 96-well Unifilter GF/B filter plates (Packard) using a 96-well tissue harvester (Brandel) and followed by three filtration washes with 200 μl ice-cold binding buffer (10 mM NaH2PO4, 10 mM Na2HPO4, pH 7.4). Filter plates were subsequently dried at 50° C. for 2-3 hours. Fifty μl/well scintillation cocktail (MicroScint20, Packard) was added and plates were counted in a Packard Top-Count for 1 min/well.
Data were analyzed using the curve fitting functions in GraphPad PRISM™, v.3.0 and the results for several compounds are set forth in table 2 below: […]

[1] = target: T1, human opioid receptor-like receptor (ORL-1) (Homo sapiens, UniProt P41146); test: biochemical; type: binding
T1 construct: host or cells: HEK-293
T1 sequence (P41146 whole entry): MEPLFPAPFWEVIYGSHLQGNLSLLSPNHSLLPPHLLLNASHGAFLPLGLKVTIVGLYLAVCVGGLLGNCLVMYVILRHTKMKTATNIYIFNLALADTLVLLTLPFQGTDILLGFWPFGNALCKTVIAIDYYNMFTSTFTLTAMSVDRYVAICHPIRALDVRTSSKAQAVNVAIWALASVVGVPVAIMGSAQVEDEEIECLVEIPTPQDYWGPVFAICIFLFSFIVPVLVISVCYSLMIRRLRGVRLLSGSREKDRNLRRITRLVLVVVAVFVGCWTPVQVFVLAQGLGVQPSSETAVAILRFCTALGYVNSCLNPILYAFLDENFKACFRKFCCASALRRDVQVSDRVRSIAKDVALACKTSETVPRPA

Mu opioid receptor, sequence (P35372 whole entry, species assumed): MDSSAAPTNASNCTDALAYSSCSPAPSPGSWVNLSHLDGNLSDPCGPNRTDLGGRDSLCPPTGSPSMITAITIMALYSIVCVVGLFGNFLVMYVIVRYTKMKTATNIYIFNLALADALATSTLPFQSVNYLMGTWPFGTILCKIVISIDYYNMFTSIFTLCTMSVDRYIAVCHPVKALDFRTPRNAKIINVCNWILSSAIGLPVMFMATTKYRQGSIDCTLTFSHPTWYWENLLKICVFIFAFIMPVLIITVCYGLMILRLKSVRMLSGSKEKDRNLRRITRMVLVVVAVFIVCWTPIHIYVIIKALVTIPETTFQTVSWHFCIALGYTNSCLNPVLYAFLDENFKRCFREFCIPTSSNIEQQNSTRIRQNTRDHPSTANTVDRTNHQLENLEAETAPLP

Row | Compound | Ki ([1]; Nociceptin Affinity calc Ki) | other results
1 | O=C1NNC(c2ccccc2)C12CCN(C1CCc3ccccc3C1)CC2 (centres unmarked) [8-(1,2,3,4-tetrahydro-2-naphthyl)-1-phenyl-2,3,8-triazospiro[4.5]decan-4-one] | – | Ki (Mu opioid receptor): 115 nM
2 | O=C1NN=C(c2ccccc2)C12CCN(CCC(c1ccccc1)c1ccccc1)CC2 [8-(3,3-Bis(phenyl)propyl)-4-phenyl-2,3,8-triazospiro[4.5]dec-3-en-1-one] | 75 nM | –
3 | CCCC1CCC(N2CCC3(CC2)C(=O)NN=C3c2ccccc2)CC1 (centres unmarked) [8-(4-propylcyclohexyl)-4-phenyl-2,3,8-triazospiro[4.5]dec-3-en-1-one] | 29.7 nM | –
4 | CC(C)CCC(C)N1CCC2(CC1)C(=O)NN=C2c1ccccc1 (centres unmarked) [8-(5-methylhex-2-yl)-4-phenyl-2,3,8-triazospiro[4.5]dec-3-en-1-one] | 11.5 nM | –
5 | O=C1NN=C(c2ccccc2)C12CCN(C1c3ccccc3CCc3ccccc31)CC2 [8-(10,11-Dihydro-5H-dibenzo[a,d]-cyclohepten-5-yl)-4-phenyl-2,3,8-triazospiro[4.5]dec-3-en-1-one] | 282 nM | –
6 | O=C1NNC(c2ccccc2)C12CCN(Cc1ccccc1)CC2 (centres unmarked) [8-(benzyl)-1-phenyl-2,3,8-triazospiro[4.5]decan-4-one] | – | Ki (Mu opioid receptor): 56 nM
7 | O=C1NN=C(c2ccccc2)C12CCN(Cc1ccccc1)CC2 [8-(benzyl)-4-phenyl-2,3,8-triazospiro[4.5]dec-3-en-1-one] | 293 nM | –
8 | O=C1NNC(c2ccccc2)C12CCN(CC1CCCCCCC1)CC2 (centres unmarked) [8-(cyclooctylmethyl)-1-phenyl-2,3,8-triazospiro[4.5]decan-4-one] | – | Ki (Mu opioid receptor): 191 nM
9 | O=C1NN=C(c2ccccc2)C12CCN(CC1CCCCCCC1)CC2 [8-(cyclooctylmethyl)-4-phenyl-2,3,8-triazospiro[4.5]dec-3-en-1-one] | 8.1 nM and 61 nM | –
10 | O=C1NN=C(c2ccccc2)C12CCN(C1CCC3CCCCC3C1)CC2 (centres unmarked) [8-(decahydro-2-naphthyl)-4-phenyl-2,3,8-triazospiro[4.5]dec-3-en-1-one] | 1.1 nM | –
11 | O=C1NN=C(c2ccccc2)C12CCN(Cc1ccc(OCc3ccccc3)cc1)CC2 [8-(p-benzyloxybenzyl)-4-phenyl-2,3,8-triazospiro[4.5]dec-3-en-1-one] | 138 nM | –
12 | O=C1NN=C(c2ccccc2)C12CCN(Cc1ccc(-c3ccccc3)cc1)CC2 [8-(p-phenylbenzyl)-4-phenyl-2,3,8-triazospiro[4.5]dec-3-en-1-one] | 7170 nM | –
13 | O=C1NN=C(c2ccccc2)C12CCN(CCCC(c1ccc(F)cc1)c1ccc(F)cc1)CC2 [8-[4,4-Bis(4-fluorophenyl)butyl]-4-phenyl-2,3,8-triazospiro[4.5]dec-3-en-1-one] | 2590 nM | –
14 | CC(C)C1CCC(N2CCC3(CC2)C(=O)NN=C3c2ccccc2)CC1 (centres unmarked) [8-[4-(2-propyl)-cyclohexyl]-4-phenyl-2,3,8-triazospiro[4.5]dec-3-en-1-one] | 1.5 nM | –
15 | O=C1NNC(c2ccccc2)C12CCN(Cc1ccc3ccccc3c1)CC2 (centres unmarked) [8-[(naphth-2-yl-methyl)]-1-phenyl-2,3,8-triazospiro[4.5]decan-4-one] | – | Ki (Mu opioid receptor): 84 nM
16 | O=C1NN=C(c2ccccc2)C12CCN(Cc1ccc3ccccc3c1)CC2 [8-[(naphth-2-yl-methyl)]-4-phenyl-2,3,8-triazospiro[4.5]dec-3-en-1-one] | 402 nM | –
17 | O=C1NN=C(c2ccccc2)C12CCN(C1CC3CCC1C3)CC2 (centres unmarked) [8-norbornyl-4-phenyl-2,3,8-triazospiro[4.5]dec-3-en-1-one] | – | Ki ([1]; read-out: Nociceptin Affinity calc Ki): 897 nM
